pIC50: −log10 of the molar value. Where two headings read alike, the source gives them in different places.
Tests used:
[1] = molecular target: IDH1 wt/IDH1 R132H heterodimer (Homo sapiens (Human), UniProt O75874, R132H); assay: In vitro assay for IDH1m R132H inhibitors, IDH1 wt/IDH1 R132H heterodimer, NADPH depletion (diaphorase/resazurin); assay type: biochemical
Protocol: The following describes the experimental procedures that can be used to obtain data on columns 2 and 4 of Table 4 and column 2 of Table 5.
In the primary reaction, the reduction of α-KG acid to 2-HG is accompanied by a concomitant oxidation of NADPH to NADP. The amount of NADPH remaining at the end of the reaction time is measured in a secondary diaphorase/resazurin reaction in which the NADPH is consumed in a 1:1 molar ratio with the conversion of resazurin to the highly fluorescent resorufin.
The mixture of compound, enzyme, and cofactor is pre-incubated at room temperature for 1 hr prior to the addition of alpha-ketoglutarate. To perform the secondary reaction, 10 uL of 1× buffer containing 36 μg/ml diaphorase and […] resazurin is added to the primary reaction and incubated for a further 5 minutes at 25° C. […] Compounds or compound dilutions are prepared in 100% DMSO concentration and diluted 1:50 into the final reaction. […] IC50s are determined.
IDH1 or IDH2 wildtype (wt) and mutant heterodimers are expressed and purified by methods known in the art. […] Co-expression of IDH1wt-his and IDH1R132C-flag is carried out in sf9 insect cells. Cells (25 g) are resuspended in 250 ml of 50 mM Tirs, 500 mM NaCl, pH7.4, at 4° C. with stirring. Cells are disrupted with 4 passes through an M-Y110 Micro fluidizer (Microfluidics) set to 500 psi, and then centrifuged at 22,000 rcf for 20 min at 4° C. The supernatant is harvested and loaded at 15 cm/h on a Histrap FF 5*1 ml column (GE) which is equilibrated with 50 mM Tirs, 500 mM NaCl, pH7.4. Host cell contaminants are removed by washing the column with equilibration buffer followed by equilibration buffer containing 20 mM imidazole and 60 mM imidazole to baseline. IDH1wt-his homodimer and IDH1wt-his/IDH1R132C-flag are eluted by equilibration buffer containing 250 mM imidazole. Fractions eluted by 250 mM imidazole are pooled together and loaded at 15 cm/h onto a column pre-packed with 10 ml ANTI-FLAG® M2 Affinity Gel (Sigma), the column is equilibrated with 50 mM Tris, 500 mM NaCl, pH7.4. After washing with equilibration buffer, IDH1wt-his/IDH1R132C-flag heterodimer is eluted by equilibration buffer containing flag peptide (0.2 mg/ml). Aliquots of IDH1wt-his/IDH1R132C-flag are flash frozen in liquid N2 and stored at −80° C. Same conditions are used for the purification of IDH1wt-his/IDH1R132H-flag.

[2] = tested on: Neurosphere cells (TS603); assay: Cellular assay for IDH1m R132H inhibitors, 2-HG by LC-MS in neurosphere cells (TS603); assay type: cell-based; conditions: 2-HG in media at 48 hours
Protocol: Cellular Assay for IDH1m R132H Inhibitors.
The following describes the experimental procedures that can be used to obtain data in column 4 of Table 5.
Neurosphere cells (TS603) are grown at 37 C in 5% CO2 in Stem Cell Technologies NeuroCult™ NS-A media supplemented with 1% Primocin, 1% Normocin, 0.0002% Heparin, 20 ng/mL EGF and 10 ng/mL bFGF. Cells are harvested, pelleted and resuspended in Accumax for cell dissociation and counting. Cells are counted and then resuspended in NeuroCult media with 2× heparin, EGF and bFGF at 4 million cells/10 mL media. 100 μl of cell solution are plated in each well of a 96 well with the exception of columns 1 and 12. Columns 1 and 12 contain 200 μL PBS. Compound dose responses are set up at a 2× concentration in Neurocult media without heparin, EGF and bFGF. The final concentration of DMSO is 0.25%. DMSO only control wells are plated in row H. The plates are then placed in the incubator for 48 hours. At 48 hours, 100 μl of media is removed from each well and analyzed by LC-MS for 2-HG concentrations. The cell plate is placed back in the incubator for another 24 hours. At 72 hours post compound addition, 10 mL/plate of Promega Cell Titer Glo reagent is thawed and mixed. The cell plate is removed from the incubator and allowed to equilibrate to room temperature. Then 100 μl of Promega Cell Titer Glo reagent is added to each well of media. The cell plate is then placed on an orbital shaker for 10 minutes and then allowed to sit at room temperature for 20 minutes. The plate is then read for luminescence with an integration time of 500 ms.

[3] = tested on: U87MG pLVX-IDH2 R140Q-neo cells; assay: U87MG pLVX-IDH2 R140Q-neo cell based assay, 2-HG by LC-MS
[4] = molecular target: IDH2 R140Q (Homo sapiens (Human), UniProt P48735, R140Q); assay: In vitro assay for IDH2m R140Q inhibitors, cofactor depletion assay; assay type: biochemical; conditions: IDH2 R140Q enzyme
Sequence of IDH2 R140Q (P48735 40-452 R140Q): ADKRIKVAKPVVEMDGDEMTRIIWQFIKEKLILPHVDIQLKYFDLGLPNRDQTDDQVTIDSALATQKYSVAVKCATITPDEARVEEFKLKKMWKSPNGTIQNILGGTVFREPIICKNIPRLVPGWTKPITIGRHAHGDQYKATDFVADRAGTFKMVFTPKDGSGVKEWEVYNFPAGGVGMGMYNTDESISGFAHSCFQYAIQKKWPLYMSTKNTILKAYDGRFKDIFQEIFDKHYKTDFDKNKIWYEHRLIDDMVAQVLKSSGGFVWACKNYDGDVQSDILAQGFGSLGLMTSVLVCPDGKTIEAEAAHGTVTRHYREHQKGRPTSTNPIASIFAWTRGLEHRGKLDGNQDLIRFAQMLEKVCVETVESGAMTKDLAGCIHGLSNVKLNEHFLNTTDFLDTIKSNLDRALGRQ
Description: The following describes the experimental procedures used to obtain data on column 7 of Table 4.
The reaction is terminated by the addition of a second enzyme, diaphorase, and a corresponding substrate, resazurin. Diaphorase reduces resazurin to the highly fluorescent resorufin with the concomitant oxidation of NADPH to NADP, both halting the IDH2 reaction by depleting the available cofactor pool and facilitating quantitation of the amount of cofactor remaining after a specific time period through quantitative production of an easily detected fluorophore.
The test compound is then incubated for one hour at room temperature with the enzyme; before starting the IDH2 reaction with the addition of 10 μl of substrate mix containing 4 μM NADPH and 1.6 mM α-KG in the buffer described above. After a further 16 hours of incubation at room temperature, the reaction is halted and the remaining NADPH measured through conversion of resazurin to resorufin by the addition of 25 μl Stop Mix (36 μg/ml diaphorase enzyme and 60 μM resazurin; in buffer).

[5] = IDH1 wt/R132H heterodimer, NADPH/NADP, not saturated, read-out: IDH1 wt/R132H NADPH/NADP IC50 not saturated
[6] = IDH1 wt/IDH1 R132H heterodimer, 300 μM NADP (saturated), read-out: IDH1 wt/R132H NADPH/NADP IC50 saturated

Sequence of IDH1 wt/IDH1 R132H heterodimer (O75874 whole entry R132H): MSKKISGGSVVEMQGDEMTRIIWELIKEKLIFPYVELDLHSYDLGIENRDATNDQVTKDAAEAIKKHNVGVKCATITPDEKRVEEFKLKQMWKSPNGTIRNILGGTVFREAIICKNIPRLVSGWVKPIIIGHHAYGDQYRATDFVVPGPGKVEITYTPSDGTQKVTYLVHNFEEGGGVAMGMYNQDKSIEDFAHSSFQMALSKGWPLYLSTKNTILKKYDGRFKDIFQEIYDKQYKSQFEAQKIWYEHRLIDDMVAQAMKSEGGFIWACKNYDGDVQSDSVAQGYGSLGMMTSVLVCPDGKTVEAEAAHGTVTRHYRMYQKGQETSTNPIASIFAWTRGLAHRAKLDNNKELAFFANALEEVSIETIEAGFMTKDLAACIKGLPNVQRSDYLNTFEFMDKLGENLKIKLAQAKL
Sequence of IDH1 wt/IDH1 R132H heterodimer (O75874 whole entry, stated change not applied): as the sequence (O75874 whole entry R132H) above, with H132R counted along it

| Compound | pIC50 [1, 5] | pIC50 [2] | pIC50 ([3]; Homo sapiens, U-87 MG) | pIC50 [4] | pIC50 [1, 6] | pIC50 [3] |
| --- | --- | --- | --- | --- | --- | --- |
| Fc1cc(F)cc(Nc2nc(NC3CCC(F)(F)C3)nc(-c3cncc(Cl)n3)n2)c1 (stereo not drawn) [Compound 109] | > 7.30 | > 7.30 | > 7.30 | > 7.30 |  |  |
| FC1(F)CCC(Nc2nc(NC3CCC(F)(F)C3)nc(-c3cncc(Cl)n3)n2)C1 (stereo not drawn) [Compound 129] | > 7.30 | > 7.30 | > 7.30 | > 7.30 |  |  |
| C[C@@H](Nc1nc(NC2CCc3ccccc32)nc(-c2cccc(C(F)(F)F)n2)n1)C1CC1 (stereo partly drawn) [Compound 135] | > 7.30 | > 7.30 |  |  |  |  |
| Fc1cc(F)cc(Nc2nc(NC3CCC(F)(F)C3)nc(-c3nc(F)ccc3F)n2)c1 (stereo not drawn) [Compound 139] | > 7.30 | > 7.30 | > 7.30 | > 7.30 |  |  |
| FC1(F)CCC(Nc2nc(NC3CCC(F)(F)C3)nc(-c3nc(C(F)(F)F)cs3)n2)C1 (stereo not drawn) [Compound 148] | > 7.30 | > 7.30 | > 7.30 | > 7.30 |  |  |
| Fc1ccc2c(c1)CC(Nc1nc(NC3CCC(F)(F)C3)nc(-c3cccc(C(F)(F)F)n3)n1)C2 (stereo not drawn) [Compound 150] | > 7.30 | > 7.30 | > 7.30 | > 7.30 |  |  |
| FC1(F)CCC(Nc2nc(NC3CCC(c4ccccc4)C3)nc(-c3cccc(C(F)(F)F)n3)n2)C1 (stereo not drawn) [Compound 184] | > 7.30 | > 7.30 | > 7.30 | > 7.30 |  |  |
| C[C@@H](Nc1nc(N[C@H](C)C2CC2)nc(-c2cccc(C(F)F)n2)n1)C1CC1 [Compound 198] | > 7.30 | > 7.30 | > 7.30 | > 7.30 |  |  |
| N#Cc1cc(Nc2nc(NC3CCC(F)(F)CC3)nc(-c3cccc(C(F)(F)F)n3)n2)ccn1 [Compound 204] | > 7.30 | > 7.30 | > 7.30 | > 7.30 |  |  |
| CC(Cc1ccccc1)Nc1nc(N[C@H](C)C2CC2)nc(-c2cccc(C(F)(F)F)n2)n1 (stereo partly drawn) [Compound 206] | > 7.30 | > 7.30 |  |  |  |  |
| FC1(F)CCC(Nc2nc(NC3CC(c4ccccc4)C3)nc(-c3cccc(C(F)(F)F)n3)n2)C1 (stereo not drawn) [Compound 208] | > 7.30 | > 7.30 |  |  |  |  |
| FC1(F)CCC(Nc2nc(NC3CCN(c4ccccc4)C3)nc(-c3cccc(C(F)(F)F)n3)n2)C1 (stereo not drawn) [Compound 219] | > 7.30 | > 7.30 |  |  |  |  |
| FC1(F)CCC(Nc2nc(NC3Cc4ccc(Br)cc4C3)nc(-c3cccc(C(F)(F)F)n3)n2)C1 (stereo not drawn) [Compound 225] | > 7.30 | > 7.30 |  |  |  |  |
| FC1(F)CCC(Nc2nc(NC3CC4(C3)CC(F)(F)C4)nc(-c3cccc(C(F)(F)F)n3)n2)CC1 [Compound 228] | > 7.30 | > 7.30 | > 7.30 | > 7.30 |  |  |
| Fc1ccc([C@H]2C[C@H](Nc3nc(NC4CCC(F)(F)C4)nc(-c4cccc(C(F)(F)F)n4)n3)C2)cc1 (stereo partly drawn) [Compound 230] | > 7.30 | > 7.30 | > 7.30 | > 7.30 |  |  |
| FC1(F)CCC(Nc2nc(NC3Cc4cc(Br)cc(Br)c4C3)nc(-c3cccc(C(F)(F)F)n3)n2)C1 (stereo not drawn) [Compound 254] | 7.00 to 7.30 | 7.00 to 7.30 |  |  |  |  |
| FC1(F)CC(Nc2nc(NC3CC(F)(F)C3)nc(-c3cccc(OC(F)(F)F)n3)n2)C1 [Compound 277] | 6.00 to 7.00 |  | 7.00 to 7.30 | 7.00 to 7.30 |  |  |

| Compound | pIC50 [1, 5] | pIC50 [2] | pIC50 ([3]; Homo sapiens, U-87 MG) | pIC50 [4] | pIC50 [1, 6] | pIC50 [3] |
| --- | --- | --- | --- | --- | --- | --- |
| C[C@@H](Nc1nc(N[C@H](C)C2CC2)nc(-c2cncc(Cl)c2)n1)C1CC1 [Compound 278] | 6.00 to 7.00 |  | < 6.00 | < 6.00 |  |  |
| C[C@@H](Nc1nc(N[C@H](C)C2CC2)nc(-c2cccc(N)n2)n1)C1CC1 [Compound 285] | 6.00 to 7.00 |  | < 6.00 | < 6.00 |  |  |
| CC(C)(O)CNc1nc(Nc2ccnc(C#N)c2)nc(-c2cccc(C(F)(F)F)n2)n1 [Compound 288] | 6.00 to 7.00 |  | 6.00 to 7.00 | 6.00 to 7.00 |  |  |
| FC1(F)CCC(Nc2nc(NC3CCC(F)(F)CC3)nc(-c3cccc(C4CC4)n3)n2)CC1 [Compound 305] | < 6.00 | 6.00 to 7.00 |  |  |  |  |
| FC1(F)CCC(Nc2nc(NC3CCC(F)(F)CC3)nc(-c3cc(C(F)(F)F)ccn3)n2)CC1 [Compound 318] | < 6.00 | ≤ 6.00 |  |  |  |  |
| C[C@@H](Nc1nc(N[C@H](C)C(F)(F)F)nc(-c2cccc(C(F)(F)F)n2)n1)C(F)(F)F [Compound 335] |  | > 7.30 |  |  | > 7.30 |  |
| C[C@@H](Nc1nc(Nc2ccnc(C3(C#N)CC3)c2)nc(-c2cncc(C(F)F)n2)n1)C(F)(F)F [Compound 336] |  | > 7.30 |  |  | > 7.30 |  |
| C[C@H](Nc1nc(Nc2ccnc(C3(C#N)CC3)c2)nc(-c2cncc(C(F)F)n2)n1)C(F)(F)F [Compound 337] |  | > 7.30 |  |  | > 7.30 |  |
| N#CC1(c2cc(Nc3nc(NC4CCC(F)(F)CC4)nc(-c4cncc(C(F)F)n4)n3)ccn2)CC1 [Compound 338] |  | > 7.30 |  |  | 7.00 to 7.30 |  |
| CC[C@H](Nc1nc(N[C@@H](CC)C(F)(F)F)nc(-c2cncc(C(F)(F)F)n2)n1)C(F)(F)F [Compound 339] |  | > 7.30 | > 7.30 | > 7.30 | > 7.30 |  |
| FC1(F)CC[C@@H](Nc2nc(Nc3ccnc(C(F)(F)F)c3)nc(-c3ccnc(C(F)(F)F)n3)n2)C1 [Compound 340] |  | 7.00 to 7.30 | > 7.30 | > 7.30 | 6.00 to 7.00 |  |
| FC1(F)CC[C@H](Nc2nc(Nc3ccnc(C(F)(F)F)c3)nc(-c3ccnc(C(F)(F)F)n3)n2)C1 [Compound 343] |  |  | > 7.30 | > 7.30 | 6.00 to 7.00 |  |
| N#CC1(c2cc(Nc3nc(N[C@H]4CCC(F)(F)C4)nc(-c4nccc(C(F)(F)F)n4)n3)ccn2)CC1 [Compound 376] |  |  | > 7.30 | > 7.30 | < 6.00 |  |
| C[C@@H](Nc1nc(N[C@H](C)C2CC2)nc(-c2cccc3[nH]ccc23)n1)C1CC1 [Compound 396] |  |  |  | 7.00 to 7.30 | < 6.00 | 7.00 to 7.30 |
| CC(C)(O)CNc1nc(Nc2cc(F)cc(C(F)(F)F)c2)nc(-c2cccc(C(C)(F)F)n2)n1 [Compound 397] |  |  | > 7.30 | > 7.30 | 6.00 to 7.00 |  |
| CC(C)(O)CNc1nc(Nc2cc(F)cc(C#N)c2)nc(-c2cccc(C(C)(F)F)n2)n1 [Compound 398] |  |  | > 7.30 | > 7.30 | 6.00 to 7.00 |  |
